Assay results reported in patent US20040091477A1, “Immunosuppresive compositions” (priority 2003, published 2004).
Where two headings read alike, the source gives them in different places.

Assays:
[1] = test system: cAMP-specific phosphodiesterase; conditions: cited from earlier work
CD54 = CD54 expression by PMA/IOM-stimulated PBMC from asthma patients, flow cytometry; format: cell-based, human
Method: (§1) Venous blood was collected in polyethylene tubes containing EDTA between 9 and 10 a.m. PBMC were separated by Ficoll-paque (Pharmacia, Uppsala, Sweden) density gradient centrifugation. Cells were washed and suspended in AIM-V medium (Gibco BRL, Gaithersburg, Md.) at density of 2×10^6 cells/ml. PBMC were stimulated with 20 nM phorbol 12-myristate 13-acetate (PMA) and 1 μM ionomycin (IOM) (ICN Pharmaceuticals, Inc. CA, USA). The cells were harvested 24 hours later and supernatants were frozen at −70° C. until use. […] For BN52021, a range between 1×10^−9 and 1×10^−4 M was used.
(§2) Two-color flow cytometry was conducted using a Coulter Epics Profile II flow cytometer (Coulter Scientific, Hialeah, Fla., USA). Isotypic controls for the monoclonal antibodies (mAb) used to detect antigens of interest were established for each cell preparation. Positive analysis regions for cells expressing specific surface antigens were set against isotypic controls and specific binding of fluorophore-conjugated mAb was analyzed by cytofluorography according to standard methods. Lymphocyte subpopulations were identified by position on forward and side scatter plots and live-gated. Isotype matched antibodies were utilized to control for nonspecific fluorescence. […] Background values for antibodies used in assays were based on fluorescence of non-specific antibodies. […]

[2] = test system: lymphocyte activation markers; assay: Dose range of BN52021 on lymphocyte activation markers in PBMC from asthma patients; format: cell-based, human; conditions: 1×10^−5 and 1×10^−7 M, 3 of the patients tested
Method: as §1, §2

HLA-DR = HLA-DR expression by PMA/IOM-stimulated PBMC from asthma patients, flow cytometry; format: cell-based, human
Method: as §1, §2

CD25 = CD25 expression by PMA/IOM-stimulated PBMC from asthma patients, flow cytometry; format: cell-based, human
Method: as §1, §2

[3] = molecular target: platelet activating factor receptor (PAFR) (Homo sapiens, UniProt P25105); conditions: cited from earlier work
Sequence of platelet activating factor receptor (PAFR) (P25105 whole entry, species assumed): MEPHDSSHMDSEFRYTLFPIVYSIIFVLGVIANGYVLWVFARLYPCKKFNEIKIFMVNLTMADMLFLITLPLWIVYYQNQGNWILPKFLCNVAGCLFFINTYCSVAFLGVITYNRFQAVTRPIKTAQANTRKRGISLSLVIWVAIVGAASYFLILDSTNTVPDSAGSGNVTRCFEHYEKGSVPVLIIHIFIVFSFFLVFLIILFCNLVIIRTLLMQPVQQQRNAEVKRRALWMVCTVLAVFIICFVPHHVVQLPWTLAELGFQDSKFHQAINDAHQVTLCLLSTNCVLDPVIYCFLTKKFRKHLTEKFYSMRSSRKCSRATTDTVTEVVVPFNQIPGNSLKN

IL-5 = IL-5 expression by PMA/IOM-stimulated PBMC from asthma patients, ELISA; format: cell-based, human
Method: as §1
(§3) Cytokine expression (IL-4 and IL5) was evaluated in culture supernatants by enzyme-linked immunoabsorption assay (Amersham North America, Illinois, USA). The detection range was 10-400 pg/ml and 7.8-500 pg/ml respectively. Colorimetric changes proportional to supernatant cytokine concentration were measured using a model 2550 EIA reader (Bio-Rad Laboratories, Hercules Calif. USA). All assays were performed in duplicate.
(§4) The data shown Table 2 was obtained using cultures of 2×10^6 human PBMC, which were isolated from venous blood and stimulated 24 hours with media, 20 nM PMA+1.0 μM ionomycin (PMA/I), 1.0 μM cyclosporine A+PMA/IOM, or 1 μM ginkgolide BN52021+PMA. Expression of interleukins 4 and 5 were measured in PBMC culture supernatents by antibody capture ELISA. […]

IL-4 = IL-4 expression by PMA/IOM-stimulated PBMC from asthma patients, ELISA; format: cell-based, human
Method: as §1, §3, §4

CD45RA = CD45RA expression by PMA/IOM-stimulated PBMC from asthma patients, flow cytometry; format: cell-based, human
Method: as §1, §2

[4] = 1 μM, PMA/IOM-stimulated cultures
[5] = PMA + IOM + 1 μM compound, 24 hours, ±SE

C[C@@H]1C(=O)O[C@H]2[C@@H](O)[C@@]34[C@H]5C[C@@H](C(C)(C)C)[C@]36[C@@H](OC(=O)[C@@H]6O)O[C@@]4(C(=O)O5)[C@@]12O [BN52021, Ginkgolide B]
cAMP phosphodiesterase inhibitory activity (in words) [1]: does not possess cAMP phophodiesterase activity
effect on CD54 expression (in words) (CD54; [4]): unaffected
% CD54 (CD54; [5]): 27.4 ± 6.9%
change in lymphocyte activation markers (in words) [2]: No change occurred in lymphocyte activation markers
effect on HLA-DR expression (in words) (HLA-DR; [4]): a trend towards the reduction
% HLA-DR (HLA-DR; [5]): 21.2 ± 5.3¶ %
effect on CD25 expression (in words) (CD25; [4]): unaffected
% CD25 (CD25; [5]): 7.1 ± 2.0%
PAFR antagonist activity (in words) [3]: PAFR antagonist activity
PAFR antagonist activity (in words) ([3]; listed as Ginkgolide B): PAFR antagonist
effect on IL-5 expression (in words) (IL-5; [4]): no statistically significant effect
IL-5 in culture supernatant (IL-5; [5]): 374 ± 105 pg/mL
effect on IL-4 expression (in words) (IL-4; [4]): no statistically significant effect
IL-4 in culture supernatant (IL-4; [5]): 81.7 ± 28.1 pg/mL
effect on CD45RA expression (in words) (CD45RA; [4]): decreased significantly
% CD45RA (CD45RA; [5]): 48.8 ± 9.5 %
